The subject of series [1] is differentiated Caco-2 cells. To be noted: cited from earlier work. The method, then: From a physiological point of view, the dynamic equilibrium between the transport and degradation of bioactive peptides is crucially important. […] Indeed, the transport is more efficient and its degradation less extensive when P5 is incubated in the presence of peptides P3 and P7. It is important to note, however, that P5 and P7 have completely different behaviors, since the transport rate of P5 tested alone is 1.8 ...

Series [2] has as its system LDLR on HepG2 cell surface. The series is described as follows: In-cell Western (ICW) assay, LDLR localized on HepG2 cell surface. In kind it is cell-based, human. The settings on record: PCSK9 alone 4 µg/mL, 2 h, mean ± SD. The method, then:
For the experiments, a total of 3 × 10^4 HepG2 cells/well were seeded in 96-well plates. The following day, cells were washed with PBS and then starved overnight (O/N) in DMEM without FBS and antibiotics. After starvation, HepG2 cells were treated with 4.0 μg/mL PCSK9-WT and 4.0 μg/mL PCSK9 + peptides P5 and/or P5-met (50 µM) and vehicle (H2O) for 2 h at 37 °C under 5% CO2 atmosphere. Subsequently, they were fixed in 4% paraformaldehyde for 20 min at room temperature (RT). Cells were washed 5 times with 100 µL of PBS/well (each wash was for 5 min at RT) and the endogenous peroxides activity quenched adding 3% H2O2 for 20 min at RT. Non-specific sites were blocked with 100 µL/well of 5% bovine serum albumin (BSA, Sigma) in PBS for 1.5 h at RT. LDLR primary antibody solution (1:3000 in 5% BSA in PBS, 25 µL/well) was incubated O/N at +4 °C. Subsequently, the primary antibody solution was discarded and each sample was washed 5 times with 100 µL/well of PBS (each wash was for 5 min at RT). Goat anti-rabbit Ig-HRP secondary antibody solution (Santa Cruz) (1:6000 in 5% BSA in PBS, 50 µL/well), was added and incubated 1 h at RT. The secondary antibody solution was washed 5 times with 100 µL/well of PBS (each wash for 5 min at RT). Freshly prepared TMB substrate (Pierce, 100 µL/well) was added and the plate was incubated at RT until desired color was developed. The reaction was stopped with 2 M H2SO4 and then the absorbance at 450 nm was measured using the microplate reader Synergy H1 (Winooski, VT, USA). After the read, cells were stained by adding 1× Janus Green stain, incubating for 5 min at RT. The dye was removed and the sample washed 5 times with water. Afterward 100 µL 0.5 M HCl for well were added and incubated for 10 min. After 10 seconds shaking, the OD at 595 nm was measured using the microplate reader Synergy H1 (Winooski, VT, USA).

For the next series, the system named is HepG2 cells. The series is described as follows: Fluorescent LDL uptake by HepG2 cells. It counts as cell-based, human. The settings on record: PCSK9 alone 4 µg/mL, 2 h; mean ± SD. The method, then: HepG2 cells (3 × 10^4/well) were seeded in 96-well plates and kept in complete growth medium for 2 days before treatment. The third day, cells were washed with PBS and then starved overnight (O/N) in DMEM without FBS and antibiotics. After starvation, they were treated with 4.0 μg/mL PCSK9 and 4.0 μg/mL PCSK9 + P5 and P5-met peptides (50.0 µM), and vehicle (H2O) for 2 h with at 37 °C under 5% CO2 atmosphere. At the end of the treatment, the culture medium was replaced with 50 μL/well LDL-DyLight™ 550 working solution (Cayman Chemical Company, Ann Arbor, MI, USA) prepared in DMEM without FBS and antibiotics. The cells were additionally incubated for 2 h at 37 °C and then the culture medium was aspirated and replaced with PBS (100 μL/well). The degree of LDL uptake was measured using the Synergy H1 fluorescent plate reader (Winooski, VT, USA) (excitation and emission wavelengths 540 and 570 nm, respectively). Fluorescent LDL-uptake was finally assessed following optimized protocol.

Like-named read-outs stand apart in the source and are kept apart here.

Regarding “LTFPGSAED [Peptide P7, lupin peptide used in mixture with P5 in the transport experiments]”, the “Transport rate across Caco-2 monolayer” value in series [1] (in mixture) is on record as 1.98 ± 0.21 ng/(mL × min); in series [1] (tested alone), 4.2 ± 0.6 ng/(mL × min).

As for “PCSK9: proprotein convertase subtilisin/kexin type-9 protein added to HepG2 cells at 4.0 μg/mL”, the “Decrease of LDLR protein levels on HepG2 cell surface versus the control cells” value in series [2] was found to be 24.7 ± 1.9%. For the same substance, in the series with HepG2 cells, the “Reduction of ability of HepG2 cells to uptake fluorescent LDL versus untreated cells” value is reported as 43.5 ± 9.7%.

Values taken from publication PMC8000724, “Trans-Epithelial Transport, Metabolism, and Biological Activity Assessment of the Multi-Target Lupin Peptide [sequence] (P5) and Its Metabolite [sequence] (P5-Met)” (Nutrients, 2021).
